Data reported in patent publication US20250339426A1, “GCN2 MODULATOR FOR TREATING CANCER” (HIBERCELL, INC., priority 2022, published 2025).

How the values were obtained:
[1] = test system: Ki67 positive cells in DLD-1 tumor sections; experiment: IHC staining of Ki67 in DLD-1 tumor sections; format: in vivo, mice
Description: (§1) DLD-1 (human colorectal cancer cells): Female 6-8 weeks old BALB/c nude mice were inoculated subcutaneously on the right flank with DLD-1 tumor cells (5×10^6) in 0.1 ml of RPMI1640 medium without serum for tumor development. The treatments were started when the mean tumor size reached approximately 195 mm^3 at Day 7 post inoculation and continued until end of study by twice daily oral gavage dosing of HC-7366 at listed doses (vehicle, 0.3 mg/kg HC-7366, 1 mg/kg HC-7366, 3 mg/kg HC-7366, 10 mg/kg HC-7366, or 30 mg/kg HC-7366, FIG. 10). For the time course study, tumors were harvested at Days 4, 7 and 14. Tumors were then used for IHC and RNAseq experiments (see Example 21).
DLD-1 tumor bearing mice were treated with HC-7366 at 0.3, 1, 3, 10 and 30 mg/kg twice a day for 14 days. Tumors were harvested for RNAseq analysis at Day 4, Day 7 and Day 14 (FIG. 128).

[2] = Tolerability by body weight in tumor-bearing mice; format: in vivo; details: NCI-H1975 study
Description: For routine monitoring, all study animals were monitored not only for tumor growth but also behavior such as mobility, food and water consumption (by cage side checking only), body weight (BW), eye/hair matting and any other abnormal effect. Any mortality and/or abnormal clinical signs were recorded. • 2.2.1 Body Weight (BW): Body weights of all animals were measured and recorded three times weekly throughout the study. Body weight change, expressed in %, is calculated using the following formula: […]

[3] = test system: LoVo (human colorectal cancer cells); experiment: In vivo tumor growth inhibition, LoVo xenograft; parameters: species or system BALB/c nude mice; details: both 1 and 3 mg/kg twice daily oral
Description: LoVo (human colorectal cancer cells): Female 6-8 weeks old BALB/c nude mice were inoculated subcutaneously on the right flank with LoVo tumor cells (5×10^6) in 0.1 ml of EMEM medium without serum for tumor development. The treatments were started when the mean tumor size reached approximately 243 mm^3 at Day 16 post inoculation and continued until end of study by twice daily oral gavage dosing of HC-7366 at listed doses (vehicle, 0.3 mg/kg HC-7366, 1 mg/kg HC-7366, 3 mg/kg HC-7366, 10 mg/kg HC-7366, or 30 mg/kg HC-7366, FIGS. 8-9).
(§2) [formula] • 2.2.2 Tumor Measurements: The measurement of tumor size was conducted three times weekly with a caliper and recorded. The tumor volume (mm^3) was estimated using the formula: TV=a×b^2/2, where “a” and “b” is long and short diameters of a tumor, respectively. Tumor volume was calculated using the formula [tumor volume (mm^3)=π/6×length×width^2).
(§3) Regression was calculated using the formula=100×ΔT/T initial, if ΔT<0. Animals with 0 mm^3 tumor volume (no measurable tumor) for three consecutive measurements were considered as complete responders and animals with 50% tumor regressions were partial responders.

[4] = test system: DLD-1 (human colorectal cancer cells); experiment: In vivo tumor growth inhibition, DLD-1 xenograft; parameters: species or system BALB/c nude mice; details: for TGI %: combination studies (Examples 9, 11)
Description: as §1, §2, §3
(§4) The effect of DC101 in combination with HC-7366 in DLD-1 tumor-bearing mice was evaluated using protocols analogous to those described in Example 6. Mice were treated with 3 or 30 mg/kg HC-7366, twice daily by oral gavage. DC101 was administered at 20 mg/kg twice weekly and with twice daily dosing via intraperitoneal injection.
as §4, with “5-fluorouracil” for “DC101”, “75” for “20”, “once a week,” for “twice weekly and with”, “daily” for “daily dosing”, “intravenous” for “intraperitoneal”

[5] = test system: ASNS, PSAT1, PUMA, HIF1α, HIF2a in DLD-1 tumors; experiment: Tumor IHC, DLD-1 tumors; format: in vivo, BALB/c nude mice
Description: Immunohistochemical analysis was carried out on tumors that were collected at the end of the study described in Example 6. Formalin-fixed paraffin-embedded samples were sectioned at 5 μm thickness and mounted on Superfrost Plus microscope slides (Fisher Scientific). All immunohistochemical (IHC) staining was performed on Bond Rx auto-stainer (Leica Biosystems) using the conventional TSA-amplified detection system. Primary antibodies used were as follows: a-ASNS (Cell Signaling Technology #92479), a-PUMA (Cell Signaling Technology #98672), a-PSAT1 (Proteintech #10501-1-AP), a-PHGDH (Proteintech #14719-1-AP), HIF-1a-Novus Biologicals NB 100-479, HIF-2a-Novus Biologicals NB100-122SS, and GLUT-1-EMB Biosciences 07-1401. TSA-conjugated Alexa488, Alexa 568 and Alexa647 fluorophores from Invitrogen (#B40953, #B40956, and #B40958) were used at 1:500 dilution. Slides were counterstained with DAPI and cover slipped using Mowiol anti-fade mounting media (Sigma #D2522).
Slides were imaged with Aperio Versa 200 (Leica Biosystems) whole-slide scanner using 10×/0.32NA objective, and the data were analyzed using custom-written macros in ImageJ/FIJI (NIH). Briefly, 150 μm of outer edges of the tumor sections and necrotic regions (determined by lack of 4′,6-diamidino-2-phenylindole (DAPI) signal or presence of condensed DNA) were eliminated from the analysis. Gaussian-blurred DAPI channel was used to measure the area of the tumor tissue. Scans of immune-staining were processed to remove background, then total intensity value above appropriate threshold levels was measured and normalized to tissue area. All graphing and statistics (one-way ANOVA and pair-wise comparisons) were performed using Prism GraphPad.

[6] = test system: MOLM-16 (human AML cells); experiment: In vivo tumor growth inhibition, MOLM-16 xenograft; parameters: species or system NOD SCID mice
Description: MOLM-16 (human AML cells): Female 6-8 weeks old nonobese diabetic/severe combined immunodeficiency (NOD SCID) mice were inoculated subcutaneously on the right flank with MOLM-16 tumor cells (1×10^7) in RPMI 1640 without serum for tumor development. The treatments were started when the mean tumor size reached approximately 220 mm^3 at Day 14 after cell inoculation and continued until end of study by twice daily oral gavage dosing of HC-7366 at listed doses (vehicle, 0.25 mg/kg HC-7366, 0.5 mg/kg HC-7366, 1 mg/kg HC-7366, or 2 mg/kg HC-7366, FIG. 16)
as §2, §3

[7] = end of study (day 20), bell-shaped manner
[8] = printed 'in FaDu tumors', FIGS. 29-39

For `CNC(=O)c1ncn2cc(-c3c(F)ccc(NS(=O)(=O)c4cc(Cl)cnc4OC)c3F)ncc12` [HC-7366, 6-(3-((5-chloro-2-methoxypyridine)-3-sulfonamido)-2,6-difluorophenyl)-N-methylimidazo[1,5-a]pyrazine-1-carboxamide], the “Ki67 positive cancer cells” value ([1]; Day 4, 0.3, 10 or 30 mg/kg) was “not at the less efficacious doses”, the “Ki67 positive cancer cells” value ([1]; Day 4, 1 and 3 mg/kg) was “significantly reduced” and the body weight loss [2] was “No treatment related body weight loss”. The tumor growth inhibition [3] was 94%, the tumor growth inhibition ([4]; 1 mg/kg and 3 mg/kg twice daily oral) was ~78% and the TGI % ([4]; HC-7366 3 mg/kg twice daily oral) was ~65%. The TGI % ([4]; HC-7366 30 mg/kg twice daily oral) was ~21%, the “ASNS by IHC” value [5, 7] was “potently induced” and the “PSAT1 by IHC” value [5, 7] was “potently induced”. The “PUMA by IHC” value [5, 7] was “potently induced”, the HIF1α protein levels [5, 8] was “significantly reduced” and the HIF2α protein levels [5, 8] was “significantly reduced”. The “effect on xenograft tumors” value ([6]; 2 mg/kg twice daily oral) was “complete eradication” and the “effect on xenograft tumors” value ([6]; other doses (0.25, 0.5, 1 mg/kg twice daily)) was “tumor growth inhibition”.
